# Assay results published in ChEMBL document CHEMBL5214889, “Therapeutic progression of quinazolines as targeted chemotherapeutic agents” (Eur J Med Chem, 2021).
# Columns and labels:
# HepG2 [1] = test: Cytotoxicity against human HepG2 cells assessed as growth inhibition by MTT assay; type: functional, cell-based
# [2] = Inhibition of PI3K (unknown origin) by ADP-Glo assay; set-up: species or system Homo sapiens
# HepG2 [3] = test: Cytotoxicity against human HepG2 cells assessed as cell growth inhibition incubated for 72 hrs by MTT assay; type: functional, cell-based; conditions: HepG2, 72 h
# K562 [4] = test: Cytotoxicity against human K562 cells assessed as cell growth inhibition incubated for 72 hrs by MTT assay; type: functional, cell-based; conditions: K562, 72 h
# MDA-MB-231 = test: Cytotoxicity against human MDA-MB-231 cells assessed as cell growth inhibition incubated for 72 hrs by MTT assay; type: functional, cell-based; conditions: MDA-MB-231, 72 h
# KB = test: Cytotoxicity against human KB cells assessed as cell growth inhibition incubated for 72 hrs by MTT assay; type: functional, cell-based
# HCT-8 = test: Cytotoxicity against human HCT-8 cells assessed as cell growth inhibition incubated for 72 hrs by MTT assay; type: functional, cell-based; conditions: HCT-8, 72 h
# Tubulin = test: Inhibition of tubulin polymerization (unknown origin) incubated for 30 mins in presence of GTP by spectrophotometric analysis; type: protein-complex assay, Homo sapiens
# Proline--tRNA ligase = target: T1, Proline--tRNA ligase (Plasmodium falciparum (isolate 3D7), UniProt Q8I5R7); test: Inhibition of Plasmodium falciparum 3D7 Prolyl-tRNA synthetase
# T1 sequence (Q8I5R7 whole entry): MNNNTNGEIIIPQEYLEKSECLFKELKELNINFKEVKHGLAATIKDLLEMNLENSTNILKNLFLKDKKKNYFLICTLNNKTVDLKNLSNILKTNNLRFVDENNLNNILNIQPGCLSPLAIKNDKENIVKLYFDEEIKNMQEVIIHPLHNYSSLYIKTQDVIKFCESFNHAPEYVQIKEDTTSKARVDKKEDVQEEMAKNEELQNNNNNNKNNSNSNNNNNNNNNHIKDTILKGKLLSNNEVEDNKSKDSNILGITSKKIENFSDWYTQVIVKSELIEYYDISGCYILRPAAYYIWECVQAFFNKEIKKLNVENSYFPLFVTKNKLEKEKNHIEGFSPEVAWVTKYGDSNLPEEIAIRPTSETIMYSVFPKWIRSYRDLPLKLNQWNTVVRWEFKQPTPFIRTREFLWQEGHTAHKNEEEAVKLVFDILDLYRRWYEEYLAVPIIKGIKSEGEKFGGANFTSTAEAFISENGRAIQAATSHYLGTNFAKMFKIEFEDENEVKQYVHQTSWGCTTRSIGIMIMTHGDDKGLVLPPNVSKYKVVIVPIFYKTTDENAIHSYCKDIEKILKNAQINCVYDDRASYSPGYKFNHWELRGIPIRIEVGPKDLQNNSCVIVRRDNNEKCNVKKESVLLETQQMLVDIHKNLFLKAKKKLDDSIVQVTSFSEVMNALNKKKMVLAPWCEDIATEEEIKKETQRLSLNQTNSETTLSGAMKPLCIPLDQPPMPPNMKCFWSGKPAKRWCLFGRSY
# [5] = Cytotoxicity against rat C6 cells assessed as reduction in cell viability incubated for 48 hrs by MTT assay; type: toxicity, cell-based
# [6] = target: Phosphatidylinositol 4,5-bisphosphate 3-kinase catalytic subunit gamma isoform (Homo sapiens, UniProt P48736); test: Inhibition of PI3Kgamma (unknown origin)
# [7] = target: Epidermal growth factor receptor (Homo sapiens, UniProt P00533); test: Inhibition of EGFR (unknown origin)
# [8] = Inhibition of COX (unknown origin); set-up: species or system Homo sapiens
# HuT78 = test: Cytotoxicity against human HuT78 cells; type: functional, cell-based
# K562 [9] = test: Cytotoxicity against human K562 cells; type: functional, cell-based
# HCT-116 = test: Cytotoxicity against human HCT-116 cells; type: functional, cell-based
# Histone deacetylase = test: Inhibition of HDAC (unknown origin); type: protein assay, Homo sapiens
# [10] = target: Phosphatidylinositol 4,5-bisphosphate 3-kinase catalytic subunit alpha isoform (Homo sapiens, UniProt P42336); test: Inhibition of PI3Kalpha (unknown origin)
# [11] = Cytotoxicity against human HUVEC cells assessed as cell growth inhibition incubated for 72 hrs by SRB assay; type: toxicity, cell-based
# [12] = target: Vascular endothelial growth factor receptor 2 (Homo sapiens, UniProt P35968); test: Inhibition of VEGFR-2 (unknown origin) using poly(Glu:Tyr)(4:1) and ATP as substrate by incubated for 1 hr by spectrophotometric based ELISA
# [13] = Inhibition of PDE2 (unknown origin); set-up: species or system Homo sapiens
# [14] = target: T2, Adrenergic receptor alpha-1 (Homo sapiens, UniProt P35348+P25100+P35368); test: Antagonist activity at Adrenergic alpha-1 receptor (unknown origin); type: functional
# T2 sequence (P35348 whole entry): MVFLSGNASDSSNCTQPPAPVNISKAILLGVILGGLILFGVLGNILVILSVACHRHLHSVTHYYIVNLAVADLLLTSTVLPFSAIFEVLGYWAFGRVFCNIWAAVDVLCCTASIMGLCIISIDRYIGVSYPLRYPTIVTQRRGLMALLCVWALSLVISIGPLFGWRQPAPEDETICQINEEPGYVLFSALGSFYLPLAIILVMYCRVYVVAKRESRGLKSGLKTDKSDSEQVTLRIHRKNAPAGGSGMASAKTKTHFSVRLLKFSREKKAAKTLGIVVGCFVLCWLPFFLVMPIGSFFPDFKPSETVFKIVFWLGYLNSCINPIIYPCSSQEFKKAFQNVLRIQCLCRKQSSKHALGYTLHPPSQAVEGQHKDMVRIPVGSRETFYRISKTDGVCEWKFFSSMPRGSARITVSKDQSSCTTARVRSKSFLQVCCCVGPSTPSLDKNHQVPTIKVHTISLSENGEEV
# T2 sequence (P25100 whole entry): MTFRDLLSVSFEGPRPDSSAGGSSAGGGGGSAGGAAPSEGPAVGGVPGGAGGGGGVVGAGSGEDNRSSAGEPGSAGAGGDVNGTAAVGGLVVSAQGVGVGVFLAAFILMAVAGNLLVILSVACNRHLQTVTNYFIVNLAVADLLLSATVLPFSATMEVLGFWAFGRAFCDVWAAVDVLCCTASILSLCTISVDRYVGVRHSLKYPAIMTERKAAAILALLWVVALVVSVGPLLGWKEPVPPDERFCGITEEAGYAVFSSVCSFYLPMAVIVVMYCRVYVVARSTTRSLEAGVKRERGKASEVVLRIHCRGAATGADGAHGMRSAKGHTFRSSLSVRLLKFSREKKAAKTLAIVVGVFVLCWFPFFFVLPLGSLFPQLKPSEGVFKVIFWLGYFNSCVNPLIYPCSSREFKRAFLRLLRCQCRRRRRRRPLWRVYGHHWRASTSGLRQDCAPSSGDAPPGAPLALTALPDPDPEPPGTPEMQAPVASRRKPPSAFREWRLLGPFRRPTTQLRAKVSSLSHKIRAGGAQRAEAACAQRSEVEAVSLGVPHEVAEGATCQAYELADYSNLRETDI
# T2 sequence (P35368 whole entry): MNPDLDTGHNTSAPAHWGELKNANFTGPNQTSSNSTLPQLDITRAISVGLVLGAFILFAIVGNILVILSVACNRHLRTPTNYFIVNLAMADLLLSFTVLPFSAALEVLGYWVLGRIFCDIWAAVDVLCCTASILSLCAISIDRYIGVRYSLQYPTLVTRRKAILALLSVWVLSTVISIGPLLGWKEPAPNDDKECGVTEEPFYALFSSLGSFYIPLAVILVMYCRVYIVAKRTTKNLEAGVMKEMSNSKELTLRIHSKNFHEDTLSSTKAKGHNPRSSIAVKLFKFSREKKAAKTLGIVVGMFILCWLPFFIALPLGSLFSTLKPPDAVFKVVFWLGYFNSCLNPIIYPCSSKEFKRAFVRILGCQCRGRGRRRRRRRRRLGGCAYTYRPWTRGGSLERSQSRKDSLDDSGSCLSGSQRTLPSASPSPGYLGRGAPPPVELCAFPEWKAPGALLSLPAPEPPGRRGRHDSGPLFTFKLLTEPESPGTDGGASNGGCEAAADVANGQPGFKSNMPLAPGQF
# Homo sapiens = organism: Homo sapiens; test: Activation of GABA receptor (unknown origin); conditions: filed as activator
# [15] = target: Sterol 14-alpha demethylase (Trypanosoma cruzi (strain CL Brener), UniProt Q7Z1V1); test: Inhibition of Trypanosoma cruzi Sterol 14-alpha demethylase
# MV4-11 = test: Cytotoxicity against human MV4-11 cells assessed as cell growth inhibition incubated for 72 hrs by MTS assay; type: functional, cell-based; conditions: MV4-11, 72 h
# MOLM-13 = test: Cytotoxicity against human MOLM-13 cells assessed as cell growth inhibition incubated for 72 hrs by MTS assay; type: functional, cell-based; conditions: MOLM-13, 72 h
# Phosphatidylinositol 4,5-bisphosphate 3-kinase catalytic subunit gamma isoform, sequence (P48736 whole entry, canonical isoform): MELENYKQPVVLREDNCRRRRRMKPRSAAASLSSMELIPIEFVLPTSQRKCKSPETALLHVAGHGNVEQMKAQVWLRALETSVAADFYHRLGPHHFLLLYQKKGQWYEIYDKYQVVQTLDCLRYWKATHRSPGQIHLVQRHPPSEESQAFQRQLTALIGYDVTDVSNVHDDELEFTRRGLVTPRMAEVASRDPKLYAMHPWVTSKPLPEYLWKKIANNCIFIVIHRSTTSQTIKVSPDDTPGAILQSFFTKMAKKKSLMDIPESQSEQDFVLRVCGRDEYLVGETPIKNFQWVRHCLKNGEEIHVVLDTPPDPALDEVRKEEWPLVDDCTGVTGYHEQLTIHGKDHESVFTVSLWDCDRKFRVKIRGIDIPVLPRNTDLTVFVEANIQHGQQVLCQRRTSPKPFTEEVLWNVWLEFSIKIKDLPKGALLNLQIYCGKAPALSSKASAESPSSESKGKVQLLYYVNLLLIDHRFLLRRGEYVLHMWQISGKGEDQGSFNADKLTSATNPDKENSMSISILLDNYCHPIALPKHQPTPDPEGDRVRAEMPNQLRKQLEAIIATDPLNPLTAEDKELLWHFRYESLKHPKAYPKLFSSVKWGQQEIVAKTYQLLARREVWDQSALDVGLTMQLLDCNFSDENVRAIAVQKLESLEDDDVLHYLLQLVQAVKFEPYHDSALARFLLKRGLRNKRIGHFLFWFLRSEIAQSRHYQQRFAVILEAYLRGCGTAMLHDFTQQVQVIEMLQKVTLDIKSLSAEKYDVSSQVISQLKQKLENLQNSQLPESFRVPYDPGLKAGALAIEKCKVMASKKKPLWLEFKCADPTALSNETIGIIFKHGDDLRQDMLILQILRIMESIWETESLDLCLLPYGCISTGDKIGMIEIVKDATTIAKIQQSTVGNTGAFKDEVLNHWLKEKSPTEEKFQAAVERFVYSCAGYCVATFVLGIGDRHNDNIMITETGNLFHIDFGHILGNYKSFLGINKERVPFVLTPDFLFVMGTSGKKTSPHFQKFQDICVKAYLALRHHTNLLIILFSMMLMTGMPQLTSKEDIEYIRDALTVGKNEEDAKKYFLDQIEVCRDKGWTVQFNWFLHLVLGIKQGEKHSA
# Phosphatidylinositol 4,5-bisphosphate 3-kinase catalytic subunit alpha isoform, sequence (P42336 whole entry, canonical isoform): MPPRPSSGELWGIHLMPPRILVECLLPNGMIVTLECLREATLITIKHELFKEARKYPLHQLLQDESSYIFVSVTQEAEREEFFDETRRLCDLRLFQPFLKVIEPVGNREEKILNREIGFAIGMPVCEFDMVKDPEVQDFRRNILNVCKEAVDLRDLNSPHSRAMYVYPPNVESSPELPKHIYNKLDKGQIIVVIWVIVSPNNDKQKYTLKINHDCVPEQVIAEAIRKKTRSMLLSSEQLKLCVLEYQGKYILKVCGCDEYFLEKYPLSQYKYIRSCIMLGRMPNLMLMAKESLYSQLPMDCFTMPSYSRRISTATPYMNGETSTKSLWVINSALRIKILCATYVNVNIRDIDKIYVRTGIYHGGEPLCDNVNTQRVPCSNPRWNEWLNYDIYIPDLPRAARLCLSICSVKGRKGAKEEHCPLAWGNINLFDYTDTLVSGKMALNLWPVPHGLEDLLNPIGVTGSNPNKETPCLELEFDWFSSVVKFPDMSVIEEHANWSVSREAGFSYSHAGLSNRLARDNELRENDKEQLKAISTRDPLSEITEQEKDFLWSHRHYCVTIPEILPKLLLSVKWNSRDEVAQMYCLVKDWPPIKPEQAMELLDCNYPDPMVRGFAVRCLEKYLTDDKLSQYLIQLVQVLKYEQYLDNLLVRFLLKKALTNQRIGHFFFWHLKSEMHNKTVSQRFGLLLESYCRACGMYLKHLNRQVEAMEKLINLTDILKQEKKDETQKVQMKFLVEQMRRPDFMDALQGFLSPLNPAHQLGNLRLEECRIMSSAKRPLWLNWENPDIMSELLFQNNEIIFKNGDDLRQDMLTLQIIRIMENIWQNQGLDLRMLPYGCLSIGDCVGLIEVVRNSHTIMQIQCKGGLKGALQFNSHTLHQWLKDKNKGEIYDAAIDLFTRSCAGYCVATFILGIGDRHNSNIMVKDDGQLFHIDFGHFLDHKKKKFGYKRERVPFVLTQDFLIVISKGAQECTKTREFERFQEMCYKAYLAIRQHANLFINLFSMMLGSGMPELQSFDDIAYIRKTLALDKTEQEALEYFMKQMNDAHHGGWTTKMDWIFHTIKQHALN
# Sterol 14-alpha demethylase, sequence (Q7Z1V1 whole entry): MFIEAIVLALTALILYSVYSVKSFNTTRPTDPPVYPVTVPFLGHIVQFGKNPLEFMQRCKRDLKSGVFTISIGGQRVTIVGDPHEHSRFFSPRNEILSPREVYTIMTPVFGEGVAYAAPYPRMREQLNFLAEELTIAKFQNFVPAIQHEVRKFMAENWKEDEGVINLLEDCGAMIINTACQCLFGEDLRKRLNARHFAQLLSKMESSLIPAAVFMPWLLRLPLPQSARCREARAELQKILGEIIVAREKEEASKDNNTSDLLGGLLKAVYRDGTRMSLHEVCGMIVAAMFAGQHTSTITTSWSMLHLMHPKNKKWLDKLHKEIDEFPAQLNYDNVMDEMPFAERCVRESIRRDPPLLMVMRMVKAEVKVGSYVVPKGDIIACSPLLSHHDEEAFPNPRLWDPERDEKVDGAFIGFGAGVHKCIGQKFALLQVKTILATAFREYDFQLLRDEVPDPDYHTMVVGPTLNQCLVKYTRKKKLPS
# Vascular endothelial growth factor receptor 2, sequence (P35968 whole entry): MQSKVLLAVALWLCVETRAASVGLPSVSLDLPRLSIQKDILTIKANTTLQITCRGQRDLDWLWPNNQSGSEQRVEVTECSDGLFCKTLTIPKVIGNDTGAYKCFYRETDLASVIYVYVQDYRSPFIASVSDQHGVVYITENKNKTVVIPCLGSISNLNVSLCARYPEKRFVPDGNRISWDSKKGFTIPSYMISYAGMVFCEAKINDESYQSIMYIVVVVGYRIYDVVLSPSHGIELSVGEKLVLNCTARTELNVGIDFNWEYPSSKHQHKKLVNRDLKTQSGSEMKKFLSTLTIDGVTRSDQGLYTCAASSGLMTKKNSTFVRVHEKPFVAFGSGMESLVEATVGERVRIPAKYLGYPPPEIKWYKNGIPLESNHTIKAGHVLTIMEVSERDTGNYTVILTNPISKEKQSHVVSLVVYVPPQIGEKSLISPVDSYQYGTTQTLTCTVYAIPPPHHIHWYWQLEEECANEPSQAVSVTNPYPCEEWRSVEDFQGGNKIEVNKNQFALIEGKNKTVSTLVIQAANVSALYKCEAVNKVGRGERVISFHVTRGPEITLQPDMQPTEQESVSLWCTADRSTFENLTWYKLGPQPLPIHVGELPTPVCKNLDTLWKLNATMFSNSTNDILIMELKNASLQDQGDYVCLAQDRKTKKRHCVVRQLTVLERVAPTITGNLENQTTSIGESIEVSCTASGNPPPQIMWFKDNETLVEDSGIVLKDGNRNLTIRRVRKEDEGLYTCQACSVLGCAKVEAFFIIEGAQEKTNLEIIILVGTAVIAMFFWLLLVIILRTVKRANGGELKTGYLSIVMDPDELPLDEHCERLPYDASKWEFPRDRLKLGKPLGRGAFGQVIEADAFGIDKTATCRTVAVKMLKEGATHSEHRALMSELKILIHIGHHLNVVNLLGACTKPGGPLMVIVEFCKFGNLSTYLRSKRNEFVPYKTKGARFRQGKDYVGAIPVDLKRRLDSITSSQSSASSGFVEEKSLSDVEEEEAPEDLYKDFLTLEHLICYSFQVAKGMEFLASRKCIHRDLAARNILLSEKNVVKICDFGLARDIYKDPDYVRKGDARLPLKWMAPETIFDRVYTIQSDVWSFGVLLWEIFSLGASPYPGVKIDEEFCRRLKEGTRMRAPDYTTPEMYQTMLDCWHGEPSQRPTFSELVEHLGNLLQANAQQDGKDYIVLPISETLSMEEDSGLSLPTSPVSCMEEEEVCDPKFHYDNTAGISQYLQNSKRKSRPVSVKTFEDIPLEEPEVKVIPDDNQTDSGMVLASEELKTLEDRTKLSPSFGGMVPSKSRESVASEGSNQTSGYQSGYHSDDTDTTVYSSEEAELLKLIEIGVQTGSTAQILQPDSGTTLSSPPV
compound,measurement,setting,value
COc1cccc2c1C(=O)c1c(O)c3c(c(O)c1C2=O)C[C@@](O)(C(=O)CO)C[C@@H]3O[C@H]1C[C@H](N)[C@H](O)[C@H](C)O1 [DOXORUBICIN],IC50,HepG2 [1],60300 nM
O=c1cc(N2CCOCC2)oc2c(-c3ccccc3)cccc12 [LY-294002],IC50,[2],57300 nM
COc1ccc(N(C)c2nc(NCc3cccnc3)nc3ccccc23)cc1,IC50,HepG2 [3],110 nM
same,IC50,K562 [4],110 nM
same,IC50,MDA-MB-231,110 nM
same,IC50,KB,110 nM
same,IC50,HCT-8,110 nM
same,IC50,Tubulin,2450 nM
O=C(C[C@H]1NCCC[C@@H]1O)Cn1cnc2ccccc2c1=O,EC50,Proline--tRNA ligase,4 nM
COc1cc([C@@H]2c3cc4c(cc3[C@@H](O[C@@H]3O[C@@H]5CO[C@@H](C)O[C@H]5[C@H](O)[C@H]3O)[C@H]3COC(=O)[C@H]23)OCO4)cc(OC)c1O [ETOPOSIDE],IC50 at 48 h,[5],4320 nM
OC1Nc2ccccc2-c2cc(-c3ccc(Cl)cc3)nn21 (centres undefined),IC50 at 48 h,[5],3860 nM
NC(=O)c1cc(-c2ccc3ncnc(-c4cccc(C(=O)NCCN5CCOCC5)c4)c3c2)ccc1Cl,IC50,[6],17 nM
Cc1ccc2c(-c3ccccc3)nc(=O)n(C(C)C)c2c1 [PROQUAZONE],IC50,[7],2 nM
COc1cc2nc(N3CCN(C(=O)c4ccco4)CC3)nc(N)c2cc1OC [PRAZOSIN],IC50,[8],1900 nM
COc1cc(C2Sc3ccccc3C(=O)N2NC(=O)c2ccc(-n3c(-c4ccncc4)nc4ccccc4c3=O)cc2)ccc1O (centres undefined),IC50,[2],31900 nM
same,IC50,HepG2 [1],60300 nM
O=C(CCCCCOc1ccc2c(c1)N=C(NC(=O)c1ccccc1)N1CCN=C21)NO,IC50,HuT78,62 nM
same,IC50,K562 [9],95 nM
same,IC50,HCT-116,330 nM
same,IC50,Histone deacetylase,50 nM
same,IC50,[10],2.98 nM
COc1cc2ncnc(-n3ncc4cc(NC(=O)Nc5ccc(C)c(Cl)c5)ccc43)c2cc1OC,IC50 at 72 h,[11],1800 nM
same,IC50,[12],12 nM
O=C1CN2Cc3c(ccc(Cl)c3Cl)N=C2N1 [ANAGRELIDE],IC50,[13],26 nM
CCCC(=O)N1CCCN(c2nc(N)c3cc(OC)c(OC)cc3n2)CC1 [BUNAZOSIN],IC50,[14],1.22 nM
Cc1ccccc1-n1c(C)nc2ccccc2c1=O,ED50,Homo sapiens,400 µmol/kg
C[C@@H](n1cnc2cc(Cl)ccc2c1=O)[C@](O)(Cn1cncn1)c1ccc(F)cc1F [ALBACONAZOLE],IC50,[15],1 nM
CN(C)CCCOc1ccc2c(NCCc3cnc(NC(=O)Nc4cccc(Cl)c4)s3)ncnc2c1,EC50,MV4-11,5 nM
same,EC50,MOLM-13,5 nM
